Assay results: US6291496A, “Treating cancers associated with overexpression of class I family of receptor tyrosine kinases” (priority 1999, dated 2001)

Legend:
[1] = system: Stage IV EGFR positive breast cancer tumors; assay: Example VIII: breast cancer with Stage IV EGFR positive tumors; assay type: in vivo, human; details: oral 5 mg/kg twice daily in combination with CETUXIMAB and Taxol
[2] = system: HER-2/neu positive breast cancer metastasized to bone; assay: Example IV: breast cancer metastasized to bone; assay type: in vivo, human; details: patient after failure of prior chemotherapy, oral 5 mg/kg twice daily plus HERCEPTIN
Description: After 90 days, oral cyclophosphamide at a dose of 3 mg/kg/day and doxorubicin administered intravenously weekly at a dose of 20 mg/m^2, are added to the drug regimen.

HER-2/neu in BT474 cells = assay: immunoblot for HER-2/neu in BT474 cells; assay type: cell-based, human; details: 25 μM ciglitazone
Description: The 184B5/HER cell line was obtained from a collaborator and was derived by stably transfecting 184B5 cells with a mutationally activated HER-2/neu oncogene; these cells form rapidly growing tumors when injected into athymic nude mice. The 184B5/HER cell line is described in Pierce, J. H., et al., Oncogene 6, 1189-1194 (1991). The BT-474 cell line is a human breast cancer adenocarcinoma cell line which overexpresses HER-2/neu, and was obtained from the American Type Culture Collection (Manassas, Va.) and bears accession number ATCC HBT-20.
184B5/HER cells were maintained in MEM-KBM mixed in a ratio of 1:1 (basal medium) containing epidermal growth factor (10 ng/ml), hydrocortisone (0.5 μg/ml), transferrin (10 μg/ml), gentamicin (5 μg/ml) and insulin (10 μg/ml) (growth medium). […] cells were grown to 60% confluence, trypsinized with 0.05% trypsin-2 mM ethylenediaminotetraacetic acid, and plated for experimental use. […]
184B5/HER cells were treated with vehicle (0.01% dimethylsulfoxide), 25 μM ciglitazone (Biomol, Plymouth Meeting, Pennsylvania) or 20 μM 15-d-PGJ2 (Biomol, Plymouth Meeting, Pennsylvania) for 24 hours. […] The protein concentration of the supernatant was measured by the method of Lowry, O. H., et al, J. Biol. Chem. 193, 265-275 (1951). […]

EGFR promoter = assay: transient transfection assay, human EGFR promoter construct ligated to luciferase, 184B5 cells; assay type: cell-based; details: 0-25 μM, 24 hours, FIG. 2
Description: To determine whether PPARγ ligands inhibit EGFR promoter activity, a transient transfection assay was performed, 184B5 cells were transfected with 1.8 μg of a human EGFR promoter construct ligated luciferase (-1100/-19) and 0.2 μg pSVβgal (Promega Corp., Madison, Wis.). The EGFR promoter is described in Hudson, L. G., et al, Cell 62, 1165-1175 (1990), the whole of which is incorporated herein by reference. 184B5 cells were seeded at a density of 5×10^4 cells/well in 6-well dishes and grown to 50-60% confluence. For each well 2 μg of […] DNA were introduced into cells using 8 μg of LIPOFECTAMINE (Life Technologies, Inc., Grand Island, N.Y.) as per the manufacturers instructions. Following transfection, the cells were treated with ciglitazone (0, 5, 10, 15, 20 and 25 μM) or 15-d-PGJ2 (0, 5, 10, 15, 20, and 25 μM) for 24 hours. The activities of luciferase and β-galactosidase were measured in cellular extract as described in Mestre, J. R, et al, Cancer Res. 57, 1081-1085 (1997). The results are shown in FIG. 2 where luciferase activity represents data that have been normalized to β-galactosidase activity (columns, means; bars, S. D., n=6; * means p<0.01 compared to control).

HER-2/neu promoter = assay: transient transfection assay, human HER-2/neu promoter construct ligated to luciferase, 184B5/HER cells; assay type: cell-based; details: 0-25 μM, 24 hours, FIG. 1
Description: To determine whether PPARγ ligands inhibit HER-2/neu promoter activity, a transient transfection assay was performed. 184B5/HER cells were transfected with 1.8 μg of a human HER-21neu promoter construct ligated to luciferase (-1571/--24) and 0.2 μg pSVβgal (Promega Corp., Madison Wis.). The HER-2/neu promoter (-1571/--24) is described in Hudson, L. G. et al, J. Biol. Chem. 265, 4389-4393 (3/90), the whole of which is incorporated herein by reference. The promoter constructs are described in Hudson, L. G., et al, Cell 62, 1165-1175(1990). 184B5/HER cells were seeded at a density of5×10^4 cells well in 6-well dishes and grown to 50-60% confluence. For each well, 2 μg of […] DNA were introduced into cells using 8 μg of LIPOFECTAMINE (Life Technologies, Inc., Grand Island, N.Y.) as per the manufacturer's instructions. Following transfection, the cells were treated with ciglitazone (0, 5, 10, 15, 20 and 25 μM) or 15d-PGJ2 (0, 5, 10, 15, 20 and 25 μM) for 24 hours.
The activities of luciferase and β-galactosidase were measured in cellular extract as described in Mestre, J. R. et al, Cancer Res. 57, 1081-1085 (1997).

[3] = system: HER-2/neu positive breast cancer; assay: Example II: adjuvant therapy with PPARγ ligand and HERCEPTIN; assay type: in vivo, human; details: patient, oral 5 mg/kg twice daily for one year, with HERCEPTIN 250 mg IV loading then 10 weekly doses of 125 mg
[4] = system: HER-2/neu positive breast cancer; assay: Example I: adjuvant therapy after mastectomy; assay type: in vivo, human; details: patient, oral 5 mg/kg twice per day for five years after mastectomy
[5] = system: non-small cell lung carcinoma where EGFR is overexpressed; assay: Example VI: non-small cell lung carcinoma metastasized to liver; assay type: in vivo, human; details: patient, oral 5 mg/kg twice daily
Description: After one month, PPARγ ligand administration is continued in combination with infusion of cisplatin every four weeks at 60 mg/m^2 for 12 more weeks.

CC1(COc2ccc(CC3SC(=O)NC3=O)cc2)CCCCC1 (centres unmarked) [ciglitazone]
tumor burden [1]: reduced tumor burden | tumor burden [2]: reduced tumor burden | amounts of HER-2/neu (immunoblot) (HER-2/neu in BT474 cells): decreased amounts of HER-2/neu | EGFR promoter activity (luciferase normalized to β-galactosidase) (EGFR promoter): inhibited EGFR promoter activity in a dose-dependent fashion | HER-2/neu promoter activity (luciferase normalized to β-galactosidase) (HER-2/neu promoter): inhibited HER-2 neu promoter activity in a dose-dependent fashion | recurrence of breast cancer [3]: Recurrence of breast cancer does not occur | recurrence of breast cancer [4]: Recurrence of breast cancer does not occur | tumor burden [5]: reduced tumor burden
